Measurements taken from patent publication US7235379B2, “Method and medium for the detection/identification of microorgranisms with esterase activity” (Bio Merieux, priority 2000, dated 2007).
“And” between values parts separate entries of the source, which are not always exact repeats. Equal entries are not always repeated. Structures can show the parent of a compound that is named as a salt. Where two headings read alike, the source gives them in different places.

Key:
[1] = tested on: Salmonella paratyphi A 006
Protocol: (§1) The esterase substrate tested is 5-bromo-3-indolyl nonanoate. A 40 g/l stock solution of substrate is prepared in a mixture of 40% dimethyl sulfoxide and 60% Tween 20. A sufficient volume is added to a supercooled MacConkey medium (without neutral red) to give a substrate concentration of 500 mg/l.
(§2) Microorganisms originating from the Applicant's collection were inoculated onto this medium from a 0.5 McFarland suspension by isolation in three quadrants. The dishes were incubated at 37° C. for 48 hours. The colonies formed were examined visually after 24 and 48 hours of incubation. The coloration of these colonies and the intensity of this coloration were noted.
(§3) Note: In the above Examples, the numbers following the strains correspond to the number of each strain referenced in the Applicant's collection. The intensity of coloration corresponds to an arbitrary scale defined as follows: […]

Salmonella spp. 017 = tested on: Salmonella spp. 017
Protocol: as §1, §2, §3

Salmonella typhi 118 [2] = tested on: Salmonella typhi 118
Protocol: as §1, §2, §3

Enterobacter cloacae 086 = test: Ex.1 colony coloration, 5-bromo-3-indolyl nonanoate, DMSO/Tween 20, MacConkey; assay type: cell-based; on intensity of coloration: key: 0: no activity; 0.1: trace of coloration; 0.5: very pale coloration; 1: distinct coloration of low intensity; 2: clear coloration of medium intensity; 3: intense coloration; 4: very intense coloration
Serratia marcescens 038 = test: as above; assay type: cell-based
[3] = tested on: Pseudomonas aeruginosa 165; test: as above; assay type: cell-based
Salmonella arizonae 018 = test: Ex.2 colony coloration, 5-bromo-3-indolyl nonanoate, methanol/bile salts, MacConkey; assay type: cell-based; on intensity of coloration: key: 0: no activity; 0.1: trace of coloration; 0.5: very pale coloration; 1: distinct coloration of low intensity; 2: clear coloration of medium intensity; 3: intense coloration; 4: very intense coloration
Protocol: The esterase substrate tested is 5-bromo-3-indolyl nonanoate. A 25 g/l stock solution of substrate is prepared in methanol to which 5 g/l of bile salts have been added. A sufficient volume is added to a supercooled MacConkey medium (without neutral red) to give a substrate concentration of 500 mg/l.

[4] = tested on: Listeria monocytogenes 079; test: Ex.3 colony coloration, 5-bromo-4-chloro-3-indolyl nonanoate 250 mg/l, DMSO/Tween 20; assay type: cell-based; further: key: 0: no activity; 0.1: trace of coloration; 0.5: very pale coloration; 1: distinct coloration of low intensity; 2: clear coloration of medium intensity; 3: intense coloration; 4: very intense coloration
Protocol: (§4) The esterase substrate tested is 5-bromo-4-chloro-3-indolyl nonanoate. A 40 g/l stock solution of substrate is prepared in a mixture of 40% dimethyl sulfoxide and 60% Tween 20. A sufficient volume is added to a supercooled MacConkey medium (without neutral red) to give a substrate concentration of 250 mg/l.

[5] = tested on: Staphylococcus aureus 276; test: as above; assay type: cell-based; further: key: 0: no activity; 0.1: trace of coloration; 0.5: very pale coloration; 1: distinct coloration of low intensity; 2: clear coloration of medium intensity; 3: intense coloration; 4: very intense coloration
Protocol: as §4

[6] = tested on: Pseudomonas aeruginosa 165; test: as above; assay type: cell-based
Protocol: as §4

Salmonella typhi 118 [7] = assay type: cell-based
Escherichia coli 002 = test: Ex.4 colony coloration, 5-bromo-3-indolyl nonanoate, DMSO/Tween 20, MacConkey; assay type: cell-based; parameters: key: —: absence of colour or intensity; settings: 8 ml/l Tergitol 4
[8] = tested on: bacterial strains exhibiting an esterase activity; settings: between 2 and 16 ml/l, more precisely between 4 and 8 ml/l
Protocol: as §1, §2

## CCCCC(CC)CCC(CC(C)C)OS(=O)(=O)O (stereo not shown) [Tergitol 4, 7-ethyl-2-methyl-4-undecanoate hydrogensulfate or its sodium salt]
[1]; 2 ml/l, 24 h
  color: gray
  intensity of coloration: 2
[1]; 2 ml/l, 48 h
  color: gray
  intensity of coloration: 2
[1]; 4 ml/l, 24 h
  color: gray
  intensity of coloration: 2
[1]; 4 ml/l, 48 h
  color: gray
  intensity of coloration: 2.5
[1]; 8 ml/l, 24 h
  color: gray
  intensity of coloration: 3
[1]; 8 ml/l, 48 h
  color: gray
  intensity of coloration: 3
[1]; 16 ml/l, 24 h
  color: gray
  intensity of coloration: 2
[1]; 16 ml/l, 48 h
  color: gray
  intensity of coloration: 2
Salmonella spp. 017; 2 ml/l, 24 h
  color: gray
  intensity of coloration: 1
Salmonella spp. 017; 2 ml/l, 48 h
  color: gray
  intensity of coloration: 3
Salmonella spp. 017; 4 ml/l, 24 h
  color: gray
  intensity of coloration: 1.5
Salmonella spp. 017; 4 ml/l, 48 h
  color: gray
  intensity of coloration: 3.5
Salmonella spp. 017; 8 ml/l, 24 h
  color: gray
  intensity of coloration: 2
Salmonella spp. 017; 8 ml/l, 48 h
  color: gray
  intensity of coloration: 3
Salmonella spp. 017; 16 ml/l, 24 h
  color: gray
  intensity of coloration: 1
Salmonella spp. 017; 16 ml/l, 48 h
  color: gray
  intensity of coloration: 2
Salmonella typhi 118 [2]
  color: gray
Salmonella typhi 118 [2]; sodium salt
  intensity of coloration: 3 and 2 and 3.5
Enterobacter cloacae 086; 2 ml/l, 24 h
  color: gray
  intensity of coloration: 0.5
Enterobacter cloacae 086; 2 ml/l, 48 h
  color: gray
  intensity of coloration: 2
Enterobacter cloacae 086; 4 ml/l, 24 h
  color: gray
  intensity of coloration: 1
Enterobacter cloacae 086; 4 ml/l, 48 h
  color: gray
  intensity of coloration: 3
Enterobacter cloacae 086; 8 ml/l, 24 h
  color: gray
  intensity of coloration: 0.5
Enterobacter cloacae 086; 8 ml/l, 48 h
  color: gray
  intensity of coloration: 1
Enterobacter cloacae 086; 16 ml/l, 24 h
  color: gray
  intensity of coloration: 0.5
Enterobacter cloacae 086; 16 ml/l, 48 h
  color: gray
  intensity of coloration: 1
Serratia marcescens 038; 2 ml/l, 24 h
  color: gray
  intensity of coloration: 2
Serratia marcescens 038; 2 ml/l, 48 h
  color: gray
  intensity of coloration: 3
Serratia marcescens 038; 4 ml/l, 24 h
  color: gray
  intensity of coloration: 2
Serratia marcescens 038; 4 ml/l, 48 h
  color: gray
  intensity of coloration: 4
Serratia marcescens 038; 8 ml/l, 24 h
  color: gray
  intensity of coloration: 2
Serratia marcescens 038; 8 ml/l, 48 h
  color: gray
  intensity of coloration: 4
Serratia marcescens 038; 16 ml/l, 24 h
  color: gray
  intensity of coloration: 2
Serratia marcescens 038; 16 ml/l, 48 h
  color: gray
  intensity of coloration: 4
[3]; 2 ml/l, 24 h
  color: gray
  intensity of coloration: 3.5
[3]; 2 ml/l, 48 h
  color: gray
  intensity of coloration: 3.5
[3]; 4 ml/l, 24 h
  color: gray
  intensity of coloration: 4
[3]; 4 ml/l, 48 h
  color: gray
  intensity of coloration: 4
[3]; 8 ml/l, 24 h
  color: gray
  intensity of coloration: 4
[3]; 8 ml/l, 48 h
  color: gray
  intensity of coloration: 4
[3]; 16 ml/l, 24 h
  color: gray
  intensity of coloration: 4
[3]; 16 ml/l, 48 h
  color: gray
  intensity of coloration: 4
Salmonella arizonae 018; 2 ml/l, 24 h
  color: gray
  intensity of coloration: 2.5
Salmonella arizonae 018; 2 ml/l, 48 h
  color: gray
  intensity of coloration: 3
Salmonella arizonae 018; 4 ml/l, 24 h
  color: gray
  intensity of coloration: 2
Salmonella arizonae 018; 4 ml/l, 48 h
  color: gray
  intensity of coloration: 2.5
Salmonella arizonae 018; 8 ml/l, 24 h
  color: gray
  intensity of coloration: 0.5
Salmonella arizonae 018; 8 ml/l, 48 h
  color: gray
  intensity of coloration: 1.5
Salmonella arizonae 018; 16 ml/l, 24 h
  color: gray
  intensity of coloration: 0.5
Salmonella arizonae 018; 16 ml/l, 48 h
  color: gray
  intensity of coloration: 2
[4]; 0.001 ml/l, 24 h
  intensity of coloration: 2
[4]; 0.001 ml/l, 48 h
  intensity of coloration: 3
[4]; 0.01 ml/l, 24 h
  intensity of coloration: 3
[4]; 0.01 ml/l, 48 h
  intensity of coloration: 3
[4]; 0.1 ml/l, 24 h
  intensity of coloration: 2
[4]; 0.1 ml/l, 48 h
  intensity of coloration: 3
[4]; 1 ml/l (1st col), 24 h
  intensity of coloration: 2
[4]; 1 ml/l (1st col), 48 h
  intensity of coloration: 3
[4]; 1 ml/l (2nd col), 24 h
  intensity of coloration: 2
[4]; 1 ml/l (2nd col), 48 h
  intensity of coloration: 3
[5]; 0.001 ml/l, 24 h
  intensity of coloration: 2
[5]; 0.001 ml/l, 48 h
  intensity of coloration: 2
[5]; 0.01 ml/l, 24 h
  intensity of coloration: 2
[5]; 0.01 ml/l, 48 h
  intensity of coloration: 3
[5]; 0.1 ml/l, 24 h
  intensity of coloration: 3
[5]; 0.1 ml/l, 48 h
  intensity of coloration: 3
[5]; 1 ml/l (1st col), 24 h
  intensity of coloration: 2
[5]; 1 ml/l (1st col), 48 h
  intensity of coloration: 3
[5]; 1 ml/l (2nd col), 24 h
  intensity of coloration: 2
[5]; 1 ml/l (2nd col), 48 h
  intensity of coloration: 3
[6]; 0.001 ml/l, 24 h
  intensity of coloration: 0.1
[6]; 0.001 ml/l, 48 h
  intensity of coloration: 0.5
[6]; 0.01 ml/l, 24 h
  intensity of coloration: 0.5
[6]; 0.01 ml/l, 48 h
  intensity of coloration: 1
[6]; 0.1 ml/l, 24 h
  intensity of coloration: 0.1
[6]; 0.1 ml/l, 48 h
  intensity of coloration: 0.5
[6]; 1 ml/l (1st col), 24 h
  intensity of coloration: 0.5
[6]; 1 ml/l (1st col), 48 h
  intensity of coloration: 0.5
[6]; 1 ml/l (2nd col), 24 h
  intensity of coloration: 0.5
[6]; 1 ml/l (2nd col), 48 h
  intensity of coloration: 1
Salmonella typhi 118 [7]
  color: gray
Salmonella typhi 118 [7]; sodium salt
  intensity of coloration: 3 and 3.5
Escherichia coli 002; 24 h
  color: —
Escherichia coli 002; 48 h
  color: —
[8]
  effect on intensity of coloration: significantly increases the intensity of coloration
